Assay results reported in ChEMBL document CHEMBL4732183, “Synthesis and evaluation of novel cyclopentane urea FPR2 agonists and their potential application in the treatment of cardiovascular inflammation” (Eur J Med Chem, 2021).

Experiments:
[1] = Metabolic stability in human liver microsomes assessed as half life at 1 uM incubated for 30 mins by LC-MS/MS analysis; type: ADME, Microsome
[2] = Metabolic stability in mouse liver microsomes assessed as half life at 1 uM incubated for 30 mins by LC-MS/MS analysis; type: ADME, Microsome
[3] = Distribution coefficient between octanol and PBS, log D of compound in pH 7.4 at 100 uM incubated for 12 hrs by LC-MS/MS analysis; type: physicochemical
[4] = MRT (0 to last) in C57BL/6 mouse at 10 mg/kg, ip measured upto 24 hrs; type: ADME, organism-based; settings: in vivo
[5] = Tmax in C57BL/6 mouse at 10 mg/kg, ip measured upto 24 hrs; type: ADME, organism-based; settings: in vivo
[6] = AUC (0 to last) in C57BL/6 mouse at 10 mg/kg, ip measured upto 24 hrs; type: ADME, organism-based; parameters: route intraperitoneal, dose 10 mg/kg, time <=24; settings: in vivo
[7] = Cmax in C57BL/6 mouse at 10 mg/kg, ip measured upto 24 hrs; type: ADME, organism-based; parameters: route intraperitoneal, dose 10 mg/kg, time <=24; settings: in vivo
[8] = AUC (0 to infinity) in C57BL/6 mouse at 10 mg/kg, ip measured upto 24 hrs; type: ADME, organism-based; parameters: route intraperitoneal, dose 10 mg/kg, time <=24; settings: in vivo
[9] = Half life in C57BL/6 mouse at 10 mg/kg, ip measured upto 24 hrs; type: ADME, organism-based; settings: in vivo
[10] = AUC extrapolated in C57BL/6 mouse at 10 mg/kg, ip measured upto 24 hrs; type: ADME, organism-based; settings: in vivo

Row | half-life at 1 µM [1] [h] | half-life at 1 µM [2] [h] | logD at 12 h, 100 µM [3] | SMILES | further results
1 | 1.83 | 7.95 | 2.5 | CN1CCC(NC(=O)C(NC(=O)Nc2ccc(Br)cc2)C2CCCC2)CC1 (configuration not stated) | –
2 | – | – | 3.7 | Cc1cncc(NC(=O)C2(NC(=O)Nc3ccc(Br)cc3)CCCC2)c1 | –
3 | 1.02 | 0.183 | > 4 | O=C(Nc1ccc(Br)cc1)NC(CC1CCCCC1)C(=O)Nc1cccnc1 (configuration not stated) | –
4 | 1.58 | 1.08 | 4.2 | CC(C)C[C@H](NC(=O)Nc1ccc(Br)cc1)C(=O)Nc1cccnc1 | –
5 | 2.62 | 3.23 | 1.2 | CN1CCC(NC(=O)C2(NC(=O)Nc3ccc(Br)cc3)CCCC2)CC1 | –
6 | 0.267 | 0.183 | > 4 | O=C(Nc1ccc(Br)cc1)NC(C(=O)Nc1cccnn1)C1CCCC1 (configuration not stated) | –
7 | 1.83 | 1.73 | 3.7 | O=C(Nc1ccc(Br)cc1)NC1(C(=O)Nc2cncnc2)CCCC1 | –
8 | 0.133 | 0.15 | 4.3 | O=C(Nc1ccc(Br)cc1)NC1(C(=O)Nc2ccccn2)CCCC1 | –
9 | – | – | > 4 | CC(C)n1cc(NC(=O)C(NC(=O)Nc2ccc(Br)cc2)C2CCCC2)cn1 (configuration not stated) | –
10 | – | – | > 4 | Cc1nn(C)cc1NC(=O)C(NC(=O)Nc1ccc(Br)cc1)C1CCCC1 (configuration not stated) | –
11 | 1.33 | 0.683 | > 4 | O=C(Nc1ccc(Br)cc1)NC(C(=O)Nc1cccnc1)C1CC1 (configuration not stated) | –
12 | > 6.67 | > 6.67 | 4.3 | O=C(Nc1ccc(Br)cc1)NC(C(=O)NC1COC1)C1CCCC1 (configuration not stated) | –
13 | 3.45 | 1.73 | > 4 | O=C(Nc1ccc(Br)cc1)NC(C(=O)NC1CCOCC1)C1CCCC1 (configuration not stated) | –
14 | 0.217 | 0.417 | 4.7 | O=C(Nc1ccc(Br)cc1)NC(C(=O)NCC1CCCO1)C1CCCC1 (configuration not stated) | –
15 | 0.867 | 0.533 | 4.4 | O=C(Nc1ccc(Br)cc1)NC1(C(=O)Nc2ccc(Cl)nc2)CCCC1 | –
16 | 2.17 | 1.5 | 4.2 | CC(C)n1cc(NC(=O)C2(NC(=O)Nc3ccc(Br)cc3)CCCC2)cn1 | –
17 | 3.07 | 1.53 | 4 | O=C(Nc1ccc(Br)cc1)NC(C(=O)Nc1cncnc1)C1CCCC1 (configuration not stated) | –
18 | 1.38 | 0.55 | > 4 | O=C(Nc1ccc(Br)cc1)NC(C(=O)Nc1cccnc1)C1CCCC1 (configuration not stated) | MRT last at 24 h [4]: 2.41 h; Tmax [5]: 0.5 h; AUC(0-t) at 24 h [6]: 69000 ng·h/mL; Cmax [7]: 31900 ng/mL; AUC(0-inf) [8]: 69000 ng·h/mL; half-life [9]: 2.08 h; %AUCextra [10]: 0.02%
19 | 1.87 | 0.367 | 3.6 | O=C(CNC(=O)Nc1ccc(Br)cc1)Nc1cccnc1 | –
20 | 1.52 | 0.733 | > 4 | O=C(Nc1ccc(Br)cc1)N[C@@H](CC1CC1)C(=O)Nc1cccnc1 | –
21 | 2.6 | 3.78 | 3.1 | Cc1nn(C)cc1NC(=O)C1(NC(=O)Nc2ccc(Br)cc2)CCCC1 | –
22 | 8.67 | 6.98 | 1.1 | O=C(Nc1ccc(Br)cc1)NC1(C(=O)NCc2nn[nH]n2)CCCC1 | –
23 | 3.13 | 1.5 | 4.7 | O=C(Nc1ccc(Br)cc1)NC(C(=O)Nc1cccnc1)C1CCOCC1 (configuration not stated) | –
24 | – | – | 1.6 | O=C(Nc1ccc(Br)cc1)NC(C(=O)NC1CNC1)C1CCCC1 (configuration not stated) | –
25 | 1.67 | 0.6 | 3.9 | Cc1ccc(NC(=O)C2(NC(=O)Nc3ccc(Br)cc3)CCCC2)cn1 | –
26 | 1.8 | 1.32 | 4.1 | O=C(Nc1ccc(Br)cc1)NC1(C(=O)Nc2cccnc2)CCCC1 | –
